# ChEMBL document CHEMBL3885881, “DrugMatrix”
# Species: Rattus norvegicus
# Assay: DrugMatrix - Regimen: Daily Repeat
# Assay type: toxicity, organism-based, Sprague-Dawley
# Design: regimen Daily Repeat, gender Male, age 6-8 weeks
# Details: in vivo, sc, 0 mg/kg, route mini-PUMP - SUBCUTANEOUS, dose level Control, vehicle 100 % SALINE; for ABSOLUTE BASOPHIL / ABSOLUTE EOSINOPHIL / ABSOLUTE LYMPHOCYTE / ABSOLUTE MONOCYTE / ABSOLUTE SEGMENTED NEUTROPHIL / BASOPHIL / EOSINOPHIL / ERYTHROCYTE COUNT / HEMATOCRIT / HEMOGLOBIN / LEUKOCYTE COUNT / LYMPHOCYTE / MEAN CORPUSCULAR HEMOGLOBIN / MEAN CORPUSCULAR HEMOGLOBIN CONCENTRATION / MEAN CORPUSCULAR VOLUME / MONOCYTE / NEUTROPHIL / NUCLEATED RED BLOOD CELLS / PLATELET COUNT: tissue Blood; for ALANINE AMINOTRANSFERASE / ALBUMIN / ALKALINE PHOSPHATASE / ASPARTATE AMINOTRANSFERASE / BLOOD UREA NITROGEN / CARBON DIOXIDE / CHLORIDE / CHOLESTEROL / CREATININE / GLUCOSE / LACTATE DEHYDROGENASE / LIPASE / PHOSPHORUS / POTASSIUM / SODIUM / TOTAL BILIRUBIN / TOTAL PROTEIN / URIC ACID: tissue Plasma
structure (smiles),measurement,setting,value
CNC[C@H](O)c1cccc(O)c1 [PHENYLEPHRINE],ABSOLUTE BASOPHIL,"72 h, time 3 day",0 CELLS/uL
same,ABSOLUTE EOSINOPHIL,"72 h, time 3 day",77.17 CELLS/uL
same,ABSOLUTE LYMPHOCYTE,"72 h, time 3 day",14293.83 CELLS/uL
same,ABSOLUTE MONOCYTE,"72 h, time 3 day",354 CELLS/uL
same,ABSOLUTE SEGMENTED NEUTROPHIL,"72 h, time 3 day",1658.33 CELLS/uL
same,BASOPHIL,"72 h, time 3 day",0%
same,EOSINOPHIL,"72 h, time 3 day",0.5%
same,ERYTHROCYTE COUNT,"72 h, time 3 day",6.27 x10E6/uL
same,HEMATOCRIT,"72 h, time 3 day",36.95%
same,HEMOGLOBIN,"72 h, time 3 day",13.4 G/DL
same,LEUKOCYTE COUNT,"72 h, time 3 day",16.38 x10E3/uL
same,LYMPHOCYTE,"72 h, time 3 day",87.17%
same,MEAN CORPUSCULAR HEMOGLOBIN,"72 h, time 3 day",21.42 pg
same,MEAN CORPUSCULAR HEMOGLOBIN CONCENTRATION,"72 h, time 3 day",36.27 G/DL
same,MEAN CORPUSCULAR VOLUME,"72 h, time 3 day",59.03 fL
same,MONOCYTE,"72 h, time 3 day",2%
same,NEUTROPHIL,"72 h, time 3 day",10.33%
same,NUCLEATED RED BLOOD CELLS,"72 h, time 3 day",0 /100WBC
same,PLATELET COUNT,"72 h, time 3 day",904.67 x10E3/uL
same,ALANINE AMINOTRANSFERASE,"72 h, time 3 day",48.33 u/L
same,ALBUMIN,"72 h, time 3 day",3.82 G/DL
same,ALKALINE PHOSPHATASE,"72 h, time 3 day",282.33 u/L
same,ASPARTATE AMINOTRANSFERASE,"72 h, time 3 day",86.83 u/L
same,BLOOD UREA NITROGEN,"72 h, time 3 day",20.17 mg/dL
same,CARBON DIOXIDE,"72 h, time 3 day",34.67 mmol/L
same,CHLORIDE,"72 h, time 3 day",102 MEQ/L
same,CHOLESTEROL,"72 h, time 3 day",71.5 mg/dL
same,CREATININE,"72 h, time 3 day",0.2 mg/dL
same,GLUCOSE,"72 h, time 3 day",136.83 mg/dL
same,LACTATE DEHYDROGENASE,"72 h, time 3 day",159 u/L
same,LIPASE,"72 h, time 3 day",9 u/L
same,PHOSPHORUS,"72 h, time 3 day",10.12 mg/dL
same,POTASSIUM,"72 h, time 3 day",5.92 MEQ/L
same,SODIUM,"72 h, time 3 day",147.8 MEQ/L
same,TOTAL BILIRUBIN,"72 h, time 3 day",0.2 mg/dL
same,TOTAL PROTEIN,"72 h, time 3 day",6.05 G/DL
same,URIC ACID,"72 h, time 3 day",1.4 mg/dL
same,ABSOLUTE BASOPHIL,"120 h, time 5 day",0 CELLS/uL
same,ABSOLUTE EOSINOPHIL,"120 h, time 5 day",0 CELLS/uL
same,ABSOLUTE LYMPHOCYTE,"120 h, time 5 day",14257.33 CELLS/uL
same,ABSOLUTE MONOCYTE,"120 h, time 5 day",326 CELLS/uL
same,ABSOLUTE SEGMENTED NEUTROPHIL,"120 h, time 5 day",3216.67 CELLS/uL
same,BASOPHIL,"120 h, time 5 day",0%
same,EOSINOPHIL,"120 h, time 5 day",0%
same,ERYTHROCYTE COUNT,"120 h, time 5 day",6.11 x10E6/uL
same,HEMATOCRIT,"120 h, time 5 day",36.22%
same,HEMOGLOBIN,"120 h, time 5 day",13.18 G/DL
same,LEUKOCYTE COUNT,"120 h, time 5 day",17.8 x10E3/uL
same,LYMPHOCYTE,"120 h, time 5 day",80.5%
same,MEAN CORPUSCULAR HEMOGLOBIN,"120 h, time 5 day",21.62 pg
same,MEAN CORPUSCULAR HEMOGLOBIN CONCENTRATION,"120 h, time 5 day",36.42 G/DL
same,MEAN CORPUSCULAR VOLUME,"120 h, time 5 day",59.37 fL
same,MONOCYTE,"120 h, time 5 day",1.83%
same,NEUTROPHIL,"120 h, time 5 day",17.67%
same,NUCLEATED RED BLOOD CELLS,"120 h, time 5 day",0 /100WBC
same,PLATELET COUNT,"120 h, time 5 day",1311 x10E3/uL
same,ALANINE AMINOTRANSFERASE,"120 h, time 5 day",47 u/L
same,ALBUMIN,"120 h, time 5 day",3.83 G/DL
same,ALKALINE PHOSPHATASE,"120 h, time 5 day",260.33 u/L
same,ASPARTATE AMINOTRANSFERASE,"120 h, time 5 day",76.17 u/L
same,BLOOD UREA NITROGEN,"120 h, time 5 day",14.67 mg/dL
same,CARBON DIOXIDE,"120 h, time 5 day",31.33 mmol/L
same,CHLORIDE,"120 h, time 5 day",101.17 MEQ/L
same,CHOLESTEROL,"120 h, time 5 day",75 mg/dL
same,CREATININE,"120 h, time 5 day",0.16 mg/dL
same,GLUCOSE,"120 h, time 5 day",152.67 mg/dL
same,LACTATE DEHYDROGENASE,"120 h, time 5 day",147.33 u/L
same,LIPASE,"120 h, time 5 day",9.33 u/L
same,PHOSPHORUS,"120 h, time 5 day",10.97 mg/dL
same,POTASSIUM,"120 h, time 5 day",6 MEQ/L
same,SODIUM,"120 h, time 5 day",145.52 MEQ/L
same,TOTAL BILIRUBIN,"120 h, time 5 day",0.17 mg/dL
same,TOTAL PROTEIN,"120 h, time 5 day",5.83 G/DL
same,URIC ACID,"120 h, time 5 day",1.27 mg/dL
same,ABSOLUTE BASOPHIL,"[…], time 14 day",0 CELLS/uL
same,ABSOLUTE EOSINOPHIL,"[…], time 14 day",64.5 CELLS/uL
same,ABSOLUTE LYMPHOCYTE,"[…], time 14 day",12507.83 CELLS/uL
same,ABSOLUTE MONOCYTE,"[…], time 14 day",380.33 CELLS/uL
same,ABSOLUTE SEGMENTED NEUTROPHIL,"[…], time 14 day",2414 CELLS/uL
same,BASOPHIL,"[…], time 14 day",0%
same,EOSINOPHIL,"[…], time 14 day",0.5%
same,ERYTHROCYTE COUNT,"[…], time 14 day",6.1 x10E6/uL
same,HEMATOCRIT,"[…], time 14 day",35.4%
same,HEMOGLOBIN,"[…], time 14 day",12.88 G/DL
same,LEUKOCYTE COUNT,"[…], time 14 day",15.37 x10E3/uL
same,LYMPHOCYTE,"[…], time 14 day",80.83%
same,MEAN CORPUSCULAR HEMOGLOBIN,"[…], time 14 day",21.18 pg
same,MEAN CORPUSCULAR HEMOGLOBIN CONCENTRATION,"[…], time 14 day",36.43 G/DL
same,MEAN CORPUSCULAR VOLUME,"[…], time 14 day",58.17 fL
same,MONOCYTE,"[…], time 14 day",2.17%
same,NEUTROPHIL,"[…], time 14 day",16.5%
same,NUCLEATED RED BLOOD CELLS,"[…], time 14 day",0.17 /100WBC
same,PLATELET COUNT,"[…], time 14 day",1016 x10E3/uL
same,ALANINE AMINOTRANSFERASE,"[…], time 14 day",53.33 u/L
same,ALBUMIN,"[…], time 14 day",3.93 G/DL
same,ALKALINE PHOSPHATASE,"[…], time 14 day",319.83 u/L
same,ASPARTATE AMINOTRANSFERASE,"[…], time 14 day",84 u/L
same,BLOOD UREA NITROGEN,"[…], time 14 day",15.5 mg/dL
same,CARBON DIOXIDE,"[…], time 14 day",34 mmol/L
same,CHLORIDE,"[…], time 14 day",101.83 MEQ/L
same,CHOLESTEROL,"[…], time 14 day",57 mg/dL
same,CREATININE,"[…], time 14 day",0.21 mg/dL
same,GLUCOSE,"[…], time 14 day",182.33 mg/dL
same,LACTATE DEHYDROGENASE,"[…], time 14 day",104.67 u/L
same,LIPASE,"[…], time 14 day",9.17 u/L
same,PHOSPHORUS,"[…], time 14 day",11.12 mg/dL
same,POTASSIUM,"[…], time 14 day",5.81 MEQ/L
same,SODIUM,"[…], time 14 day",144.85 MEQ/L
same,TOTAL BILIRUBIN,"[…], time 14 day",0.18 mg/dL
same,TOTAL PROTEIN,"[…], time 14 day",5.92 G/DL
same,URIC ACID,"[…], time 14 day",1.38 mg/dL
